According to patent US10899764B2, “Imidazo isoindole derivative, preparation method therefor and medical use thereof” (Jiangsu Hengrui Medicine Co., Ltd., priority 2015, dated 2021):
Structures can show the parent of a compound that is named as a salt. Where two headings read alike, the source gives them in different places.

Key:
human TDO = human TDO (Homo sapiens (Human), UniProt P48775); experiment: Inhibition activity on human TDO (tryptophan 2,3-dioxygenase) (enzyme assay, absorbance at 480 nm); format: biochemical; conditions: read-out: IC50 for inhibiting the activity of human TDO
Protocol: Assay for Determining the Inhibition activity of the Compounds of the Present Invention on Human TDO (tryptophan 2,3-dioxygenase)
Human TDO activity was tested in vitro by the following method.
This method is used to determine the inhibition effect of the compounds of the present invention on the activity of human TDO.
Plasmids constructed with the human TDO gene were transferred to competent Escherichia coli Rosseta. The TDO gene was scaled-up by culturing in liquid LB (Luria-Bertani) medium [which was prepared per liter according to “Molecular Cloning A Laboratory Manual” (J. Sambrook, D. W. Russell)]). The bacteria were collected and lysed by ultrasonic waves. The purified TDO was obtained by eluting from a column.
For testing, 24 μL of enzyme (TDO) was diluted 100 times with 50 mM KPB to 2400 μL. The concentration of the enzyme solution was 2.6 ng/μL. A 96 well reaction plate (AXYGEN, PCR-96-FLT-C) (hereinafter referred to as the “reaction plate”) was added with the enzyme solution at 24 μL/well. The blank well was added with 24 μL of KPB [Preparation of KPB buffer (50 mM): 6.805 g of KH2PO4 was weighed using an analytical balance, and placed into a 1000 mL beaker, deionized water was added with a measuring cylinder to 900 mL, the pH was adjusted to 6.5 by 1M KOH, then the mixture was introduced into a 1 L measuring cylinder, and water was added to 1 L. It was stored at 4° C.]. Then, 1 μL of a compound or DMSO was added into the corresponding wells in the reaction plate. Preparation of solution A: 200 μL of 500 mM L-sodium ascorbate was added with 1050 μL of KPB, then the mixture was mixed uniformly for 3 seconds at the maximum speed in a turbine mixer. Solution B: 100 μL of 10 mM tryptophan was added with 100 μL of 100,000 unit/ml catalase, 5 μL of 10 mM methylene blue, and 1050 μL of KPB successively, then the mixture was mixed uniformly for 3 seconds at the maximum speed in a turbine mixer. Then, 1200 μL of solution A and 1200 μL of solution B were taken and mixed uniformly for 3 seconds at the maximum speed in a turbine mixer. The mixture was added to the reaction plate at 24 μL/well. The reaction plate was placed in a plate centrifuge and centrifuged for 15 seconds at the maximum speed, so that the reaction liquids converged to the bottom. The reaction mixture was mixed uniformly for 30 seconds on a shaker, and incubated for 1 hour at 37° C. in a constant temperature incubator. In the reaction plate, 30% (W/V) trichloroacetic acid was added at 10 μL/well, then the mixture was incubated for 15 minutes at 65° C. in a incubator. The reaction plate was centrifuged in a centrifuge for 5 minutes at 4700 RPM at room temperature. […] Then, 2% (W/V) 4-(dimethylamino)benzaldehyde/glacial acetic acid solution was added at 40 μL/well, then the mixture was mixed uniformly for 1 minute on a shaker at the maximum speed. After incubation for 2 minutes at room temperature, the absorbance at 480 nm was read on a Synergy HT Reader.
The inhibition activity of the compounds of the present invention on human TDO was tested by the assay described above.

human IDO1 = human IDO1 (Homo sapiens (Human), UniProt P14902); experiment: Inhibition activity on human IDO1 (enzyme assay, absorbance at 480 nm); format: biochemical; conditions: read-out: IC50 for inhibiting the activity of human IDO1
Protocol: Assay for Determining the Inhibition Activity of the Present Compounds on Human IDO1
Human IDO1 activity was tested in vitro by the following method.
This method is used to determine the inhibition effect of the compounds of the present invention on the activity of human IDO1.
The human IDO1 gene was transferred to Pet30a plasmid by gene cloning, and then transferred to competent Escherichia coli Rosseta. The IDO1 gene was scaled-up by culturing in liquid LB (Luria-Bertani) medium [which was prepared per liter according to “Molecular Cloning A Laboratory Manual” (J. Sambrook, D. W. Russell)]). The bacteria were collected and lysed by ultrasonic waves. The purified IDO1 was obtained by eluting from a column.
For testing, 24 μL of enzyme (IDO1) was diluted 100 times with 50 mM KPB to 2400 μL. The concentration of the enzyme solution was 2.6 ng/μL. A 96 well reaction plate (AXYGEN, PCR-96-FLT-C) (hereinafter referred to as the “reaction plate”) was added with the enzyme solution at 24 μL/well. The blank well was added with 24 μL of KPB [Preparation of KPB buffer (50 mM): 6.805 g of KH2PO4 was weighed using an analytical balance, and placed into a 1000 mL beaker, deionized water was added with a measuring cylinder to 900 ml, the pH was adjusted to 6.5 by 1M KOH, then the mixture was introduced into a 1 L measuring cylinder, and water was added to 1 L. It was stored at 4° C.]. Then, 1 μL of a compound or DMSO was added into the corresponding wells in the reaction plate. Preparation of solution A: 200 μL of 500 mM L-sodium ascorbate were added with 1050 μL of KPB, then the mixture was mixed uniformly for 3 seconds at the maximum speed in a turbine mixer. Solution B: 100 μL of 10 mM tryptophan were added with 100 μL of 100,000 unit/mL catalase, 5 μL of 10 mM methylene blue, and 1050 μL of KPB successively, then the mixture was mixed uniformly for 3 seconds at the maximum speed in a turbine mixer. Then, 1200 μL of solution A and 1200 μL of solution B were taken and mixed uniformly for 3 seconds at the maximum speed in a turbine mixer. The mixture was added to the reaction plate at 24 μL/well. The reaction plate was placed in a plate centrifuge and centrifuged for 15 seconds at the maximum speed, so that the reaction liquids converged to the bottom. The reaction mixture was mixed uniformly for 30 seconds on a shaker, and incubated for 1 hour at 37° C. in a constant temperature incubator. In the reaction plate, 30% (W/V) trichloroacetic acid was added at 10 μL/well, then the mixture was incubated for 15 minutes at 65° C. in an incubator. The reaction plate was centrifuged in a centrifuge for 5 minutes at 4700 RPM at room temperature. […] Then, 2% (W/V) 4-(dimethylamino)benzaldehyde/glacial acetic acid solution was added at 40 μL/well, and the mixture was mixed uniformly for 1 minute on a shaker at the maximum speed. After incubation for 2 minutes at room temperature, the absorbance at 480 nm was read on a Synergy HT (BIOTEK) reader.
The inhibition activity of the compounds of the present invention on human IDO1 was tested by the assay described above.

IDO in HeLa cells = IDO in HeLa cells (Homo sapiens (Human), UniProt P14902); experiment: Inhibition activity on IDO in HeLa cells (INF-γ induced); format: cell-based; conditions: read-out: IC50 for inhibiting the activity of IDO in HeLa cells
Protocol: Assay for Determining the Inhibition Activity of the Present Compounds on IDO in HeLa Cells
IDO activity in HeLa cells was tested in vitro by the following method.
This method is used to determine the inhibition effect of the compounds of the present invention on the activity of IDO in HeLa cells. (Note: indoleamine 2,3-dioxygenase (IDO) is expressed in the HeLa cell line and induced by interferon gamma (INF-γ)).
The supernatant was removed, serum-free DMEM high glucose medium was added at 90 μL/well, then the compounds contained in the culture medium with INF-γ and tryptophan were added at 10 μL/well (the final concentrations: 10000, 1000, 100, 10, 1, 0.1 nM). […] Then, 80 μL of the supernate was transferred from the 96-well cell culture plate to a 96 well round-bottomed plate, then 30% (W/V) trichloroacetic acid was added at 16 μL/well, then the mixture was incubated for 25 minutes at 65° C. in an incubator. The reaction plate was centrifuged in a centrifuge for 5 minutes at 4700 RPM. Then, 50 μL of the supernatant was transferred from the reaction plate to a 96-well flat-bottomed transparent plate by a multi-channel pipette. Then, 2% (W/V) 4-(dimethylamino)benzaldehyde/glacial acetic acid solution was added at 50 μL/well, then the mixture was mixed uniformly for 1 minute on a shaker. After incubation for 2 minutes at room temperature, the absorbance at 480 nm was read on a Synergy HT Reader.
The inhibition activity of the compounds of the present invention on IDO in HeLa cells was tested by the assay described above.

[1] = purified recombinant human TDO, 1 hour at 37° C.
[2] = purified recombinant human IDO1, 1 hour at 37° C.
[3] = HeLa cells, INF-γ and tryptophan, 48 hours

human TDO, sequence (P48775 whole entry): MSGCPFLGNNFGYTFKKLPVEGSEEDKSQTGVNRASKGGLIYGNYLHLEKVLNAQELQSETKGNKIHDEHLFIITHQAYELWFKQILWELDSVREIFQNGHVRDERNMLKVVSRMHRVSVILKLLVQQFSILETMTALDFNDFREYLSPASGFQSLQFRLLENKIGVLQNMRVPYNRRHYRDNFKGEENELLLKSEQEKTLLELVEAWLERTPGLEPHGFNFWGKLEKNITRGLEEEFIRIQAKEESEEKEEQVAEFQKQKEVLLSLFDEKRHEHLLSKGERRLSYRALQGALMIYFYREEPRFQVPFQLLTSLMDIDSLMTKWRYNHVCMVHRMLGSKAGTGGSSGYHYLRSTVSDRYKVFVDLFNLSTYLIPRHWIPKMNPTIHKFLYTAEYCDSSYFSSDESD
human IDO1, sequence (P14902 whole entry): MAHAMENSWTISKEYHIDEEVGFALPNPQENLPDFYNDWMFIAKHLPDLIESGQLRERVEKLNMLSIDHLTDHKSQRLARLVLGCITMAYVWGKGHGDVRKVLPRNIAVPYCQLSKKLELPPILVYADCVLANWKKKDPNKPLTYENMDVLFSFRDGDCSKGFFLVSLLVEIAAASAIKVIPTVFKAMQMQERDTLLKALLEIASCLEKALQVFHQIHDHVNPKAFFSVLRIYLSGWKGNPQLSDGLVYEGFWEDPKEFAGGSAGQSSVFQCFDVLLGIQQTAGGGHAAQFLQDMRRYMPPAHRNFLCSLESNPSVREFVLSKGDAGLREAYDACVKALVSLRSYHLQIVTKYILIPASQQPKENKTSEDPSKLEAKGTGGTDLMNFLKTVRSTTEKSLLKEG
IDO in HeLa cells, sequence (P14902 whole entry): as above

Row | IC50 (human TDO; [1]) [nM] | IC50 (human IDO1; [2]) [nM] | IC50 (IDO in HeLa cells; [3]) [nM] | Structure (SMILES) | IC50 (human TDO) [nM] | IC50 (human IDO1) [nM] | IC50 (IDO in HeLa cells) [nM]
1 |  |  |  | NC(=O)c1ccc(N2CCC(C3c4c(F)cccc4-c4cncn43)CC2)cc1 (centres unmarked) [Example 6, 4-(4-(6-fluoro-5H-imidazo[5,1-a]isoindol-5-yl)piperidin-1-yl)benzamide trifluoroacetate] | 394 |  | 
2 | 319 | 58.7 | 334 | OC[C@H](O)Cn1cc(-c2ccc(N3CCC(C4c5c(F)cccc5-c5cncn54)CC3)cc2)cn1 (stereo partly drawn) [Example 30, (2R)-3-(4-(4-(4-(6-fluoro-5H-imidazo[5,1-a]isoindol-5-yl)piperidin-1-yl)phenyl)-1H-pyrazol-1-yl)propane-1,2-diol trifluoroacetate] |  |  | 
3 |  |  |  | N#Cc1ccc(N2CCC(C3c4c(F)cccc4-c4cncn43)CC2)cc1 (centres unmarked) [Example 5, 4-(4-(6-fluoro-5H-imidazo[5,1-a]isoindol-5-yl)piperidin-1-yl)benzonitrile trifluoroacetate] | 394 | 81.2 | 353
4 |  |  |  | Fc1cccc2c1C(C1CCN(c3ccccc3)C1)n1cncc1-2 (centres unmarked) [Example 25, 6-fluoro-5-(1-phenylpyrrolidin-3-yl)-5H-imidazo[5,1-a]isoindole trifluoroacetate] | 257 |  | 
5 | 399 | 48.2 | 439 | Fc1cccc2c1C(C1CCN(c3ncc(-c4ccccc4)s3)CC1)n1cncc1-2 (centres unmarked) [Example 23, 2-(4-(6-fluoro-5H-imidazo[5,1-a]isoindol-5-yl)piperidin-1-yl)-5-phenylthiazole trifluoroacetate] |  |  | 
6 | 220 | 35.9 | 292 | OC[C@@H](O)Cn1cc(-c2ccc(N3CCC(C4c5c(F)cccc5-c5cncn54)CC3)cc2)cn1 (stereo partly drawn) [Example 29, (2S)-3-(4-(4-(4-(6-fluoro-5H-imidazo[5,1-a]isoindol-5-yl)piperidin-1-yl)phenyl)-1H-pyrazol-1-yl)propane-1,2-diol] |  |  | 
7 | 361 | 34 | 198 | Fc1cccc2c1C(C1CCN(c3ncc(-c4cnn(C5CCOCC5)c4)cn3)CC1)n1cncc1-2 (centres unmarked) [Example 18, 6-fluoro-5-(1-(5-(1-(tetrahydro-2H-pyran-4-yl)-1H-pyrazol-4-yl)pyrimidin-2-yl)piperidin-4-yl)-5H-imidazo[5,1-a]isoindole] |  |  | 
8 |  |  |  | Fc1cccc2c1C(C1CCN(c3ccccc3)CC1)n1cncc1-2 (centres unmarked) [Example 1, 6-fluoro-5-(1-phenylpiperidin-4-yl)-5H-imidazo[5,1-a]isoindole trifluoroacetate] | 338 | 87.4 | 
9 |  |  |  | Fc1ccc2c(c1)C(C1CCN(c3ccccc3)CC1)n1cncc1-2 (centres unmarked) [Example 2, 7-fluoro-5-(1-phenylpiperidin-4-yl)-5H-imidazo[5,1-a]isoindole trifluoroacetate] | 215 |  | 
10 | 243 | 15.5 | 198 | CS(=O)(=O)N1CCC(Oc2ccc(N3CCC(C4c5c(F)cccc5-c5cncn54)CC3)cc2)CC1 (centres unmarked) [Example 39, 6-fluoro-5-(1-(4-((1-(methylsulfonyl)piperidin-4-yl)oxy)phenyl)piperidin-4-yl)-5H-imidazo[5,1-a]isoindole] |  |  | 
11 | 104 | 10.6 | 27.8 | Nc1cc(-c2nnc(N3CCC(C4c5c(F)cccc5-c5cncn54)CC3)s2)ccn1 (centres unmarked) [Example 36, 4-(5-(4-(6-fluoro-5H-imidazo[5,1-a]isoindol-5-yl)piperidin-1-yl)-1,3,4-thiadiazol-2-yl)pyridin-2-amine trifluoroacetate] |  |  | 

Row | Structure (SMILES) | IC50 (human TDO; [1]) [nM] | IC50 (human IDO1; [2]) [nM] | IC50 (IDO in HeLa cells; [3]) [nM] | IC50 (human TDO) [nM] | IC50 (human IDO1) [nM] | IC50 (IDO in HeLa cells) [nM]
12 | N#Cc1ccc(N2CCC(C3c4c(F)cccc4-c4cncn43)CC2)cc1F (centres unmarked) [Example 45, 2-fluoro-4-(4-(6-fluoro-5H-imidazo[5,1-a]isoindol-5-yl)piperidin-1-yl)benzonitrile] | 234 | 8.84 | 231 |  |  | 
13 | Fc1ccc(N2CCC(C3c4c(F)cccc4-c4cncn43)CC2)cc1F (centres unmarked) [Example 46, 5-(1-(3,4-difluorophenyl)piperidin-4-yl)-6-fluoro-5H-imidazo[5,1-a]isoindole] |  |  | 69.1 | 68.9 | 6.68 | 
